Test results published in ChEMBL document CHEMBL5052826, “Kif18a inhibitors” (2020).

The molecules below were run against T1, Kinesin-like protein KIF18A (Homo sapiens, UniProt Q8NI77) (assay: Inhibition of recombinant His-tagged human KIF18A (1 to 467 residues) expressed in baculovirus expression system assessed as inhibition of microtubule-stimulated ATPase activity preincubated for 15 mins followed by ATP addition and further incubated for 15 mins and measured after 40 mins by ADP-Glo reagent based assay).
T1 sequence (Q8NI77 whole entry): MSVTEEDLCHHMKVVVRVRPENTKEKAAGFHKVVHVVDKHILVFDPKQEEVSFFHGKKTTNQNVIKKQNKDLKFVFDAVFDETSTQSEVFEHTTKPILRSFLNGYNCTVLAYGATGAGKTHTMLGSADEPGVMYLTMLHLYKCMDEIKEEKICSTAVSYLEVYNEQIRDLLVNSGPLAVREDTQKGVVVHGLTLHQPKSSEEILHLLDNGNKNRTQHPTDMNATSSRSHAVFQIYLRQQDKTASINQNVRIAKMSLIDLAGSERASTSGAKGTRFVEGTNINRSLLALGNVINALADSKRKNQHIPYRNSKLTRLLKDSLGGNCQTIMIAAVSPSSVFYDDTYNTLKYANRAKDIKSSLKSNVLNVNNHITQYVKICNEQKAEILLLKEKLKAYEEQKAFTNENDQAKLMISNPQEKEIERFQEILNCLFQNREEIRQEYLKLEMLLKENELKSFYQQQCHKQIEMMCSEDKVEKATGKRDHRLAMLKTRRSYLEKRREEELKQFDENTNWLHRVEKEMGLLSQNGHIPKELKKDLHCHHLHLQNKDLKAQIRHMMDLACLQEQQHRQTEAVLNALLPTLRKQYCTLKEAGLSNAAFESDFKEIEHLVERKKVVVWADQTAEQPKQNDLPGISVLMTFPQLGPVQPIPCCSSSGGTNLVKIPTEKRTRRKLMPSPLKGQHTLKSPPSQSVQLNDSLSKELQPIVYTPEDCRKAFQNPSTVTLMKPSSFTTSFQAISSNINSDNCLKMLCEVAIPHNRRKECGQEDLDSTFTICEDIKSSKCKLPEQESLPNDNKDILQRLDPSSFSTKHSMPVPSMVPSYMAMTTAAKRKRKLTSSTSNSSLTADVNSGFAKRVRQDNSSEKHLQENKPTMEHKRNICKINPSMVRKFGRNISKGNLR

SMILES	IC50
Cc1cc(NC(=O)c2ccc(NS(=O)(=O)C[C@H](C)O)cc2N2CCC3(CC2)CC3)nc(N2CCO[C@H](C)C2)n1	0.151 µM
Cc1cc(NC(=O)c2ccc(S(=O)(=O)[C@@H](C)CO)cc2N2CCC3(CC2)CC3)nc(N2CCC(F)(F)CC2)n1	0.057 µM
Cc1cc(NC(=O)c2ccc(S(=O)(=O)[C@H](C)CO)cc2N2CCC3(CC2)CC3)nc(N2CCC(F)(F)CC2)n1	0.064 µM
Cc1cc(NC(=O)c2ccc(S(C)(=O)=O)cc2N2CCC3(CC2)CC3)nc(NC(C)(C)CO)n1	0.186 µM
